Measured values: patent US9486471B2, “Combination therapy for the treatment of cancer” (McMaster University, priority 2012, dated 2016)
Structures can show the parent of a compound that is named as a salt. Where two headings read alike, the source gives them in different places.

Experiments:
[1] = system: AML-OCI2 and AML-OCI3 cell lines; experiment: Volumetric cell counting of AML cell lines treated with DR antagonists and agonists; assay type: cell-based, human; settings: 72 h, serum-free conditions
Procedure: Volumetric Cell Counting. The number of AML-OCI2 and AML-OCI3 cells present after 72 h treatment with DR antagonists (FIG. 16b) and agonist (FIG. 16c-d) were counted by measuring the number of events within a fixed volume following the grating strategy defined by forward scatter and side scatter clustering, 7AAD− and Hoechst+.
Due to the bioavailability of dopamine in fetal bovine serum (FBS) (Little et al., 2002), serum-free conditions were employed to assess the role of DRs in AML.

AML patient blast cells = experiment: Methylcellulose colony-forming assay, AML patient blast-CFU; assay type: cell-based, human
Procedure: (§1) AML/HPSC Cell Culture. AML cell lines, namely, OCI-AML2 (M4), OCI-AML3 (M4), HL-60 (M2) and MV-4-11(M5) were cultured in RPMI (Gibco) supplemented with 5% heated-inactivated FBS (HyClone). For DR agonist studies with R(+)-7-Hydroxy-DPAT hydrobromide (Sigma), serum-free conditions were employed instead due to the prevalence of dopamine in FBS (Little et al., 2002). AML patient blasts were cultured in IMDM supplemented with 5% heated inactivated FBS (HyClone), 5 ng/mL IL3 (R&D systems), 5×10^−5 M β-mercaptoethanol (Sigma) and BIT (StemCell Technologies). HSC media contained IMDM supplemented with 1% BSA (Sigma), 100 ng/mL SCF (R&D systems), 100 ng/mL Flt-3L (R&D systems) and 20 ng/mL TPO (R&D systems). Patient HSPC and AML samples were treated with compound or DMSO-vehicle (0.1%) for 24 h prior to CFU plating or xenotransplantation studies.
(§2) Methylcellulose Colony-Forming Assay. AML patient or CB lin− cells were cultured 24 hours in the presence of compound or DMSO-vehicle (0.1%) control. AML cells were plated at 50 000 cells/mL in Methocult GF H4434 (Stem Cell Technologies). CB lin− cells were plated at 1000 cells/mL in Methocult GF H4434 (Stem Cell Technologies). Colonies were scored after 14 days of culture using standard morphological criteria.

[2] = system: v1H9-Oct4-GFP neoplastic hPSC; experiment: Chemical screening of neoplastic hPSC reporter line (GFP / Hoechst, loss of pluripotency); assay type: cell-based, human; settings: for activity at 10 µM: read-out: Hoechst % residual activity (% RA); for hit in extended screen (loss of pluripotency): 2446 compound screen, reduced mean GFP intensity and cell count
Procedure: In Vitro Culture Platform for Normal and Neoplastic hPSCs. Chemical screens involved v1H9-Oct4-GFP cells seeded at 5,000 cells per well in mouse embryonic fibroblast conditioned media (MEFCM) supplemented with 8 ng/ml bFGF. 24 hours later the media was exchanged for MEFCM with compounds at 10 μM and 0.1% DMSO, 0.1% DMSO (−BMP4) or 100 ng/ml of BMP4 and 0.1% DMSO (+BMP4) for 48 hours before being exchanged with fresh media with compound for a further 24 h (total compound treatment time 72 h) prior to being fixed and prepared for automated imaging and plate reader analysis. Confluent H9 & fibroblast-derived iPSC were seeded at 10,000 cells per well in MEFCM supplemented with 8 ng/ml bFGF. 24 hours later the cells were treated with compounds at 10 μM and 0.1% DMSO, 0.1% DMSO (−BMP4) or 100 ng/ml of BMP4 and 0.1% DMSO (+BMP4). Fresh MEFCM supplemented with compounds was exchanged daily for 5 days. On day 5, hPSC's were fixed and prepared for automated imaging and plate reader analysis. See supplementary experimental procedures for further details.
Imaging Neoplastic hPSC. Cells were fixed in 2% paraformaldehyde and stained with 10 μg/mL Hoechst 33342 (Invitrogen) with a Combi Multidrop Dispenser (Thermo). For experiments that involved Oct4 immunocytochemistry, a monoclonal antibody for Oct4 (BD) was used along with an Alexa-Fluor-647 secondary (Invitrogen). Immunocytochemical staining was performed by a Janus automated liquid handler (Perkin Elmer). Images were acquired at 10× N.A with an Arrayscan HCS VTI Reader (Cellomics) by means of epi-fluorescence illumination and standard filter sets.
Image Analysis. Image analysis was performed using custom scripts in Acapella software (Perkin Elmer). Nuclear objects were segmented from the Hoechst signal. For neoplastic cell lines, object intensity analysis was performed on GFP positive cells only. For normal cell lines, the fraction of Alexa-Fluor-647-positive cells was quantified. Images and well-level data were stored and analysed in a Columbus Database (Perkin Elmer) and further data analysis, compounds registration and hit identification in ActivityBase (IDBS).
These Collections have been previously scrutinized in numerous other mammalian cell lines (Diallo et al., 2010; Shoemaker, 2006).

[3] = system: HL-60, MV4-11 and OCI-AML3 leukemic cell lines; experiment: Normalized cell number of leukemic cell lines after 72 h incubation (Examples 1, 3); assay type: cell-based, human; settings: 10 μM
Procedure: All three lines are leukemic cell lines. […] Each condition had three replicates.
The dopamine receptor antagonist and phenothiazine-related compound chlorpromazine was also investigated for effects on the AML cell lines HL-60, MV4-11 and OCI-AML3. Testing was performed as set out in Example 1.

[4] = system: AML cell lines HL-60, OCI-AML2 and OCI-AML3
Procedure: All three lines are leukemic cell lines. HL-60 was derived from promyelocytic AML whereas MV 4-11 and OCI-AML3 are representative of AML. Each compound was incubated with the cells for 72 h. The control was DMSO (ie the vehicle used for the compound) for 72 h. Each condition had three replicates.
A series of dopamine receptor agonists, D3-antagonists, DR1 & 5-antagonists and multi-receptor antagonists were tested for cytotoxicity against three AML cell lines HL-60, OCI-AML2 and OCI-AML3. Testing was performed as set out in Example 1.

[5] = system: p53 and p21 in neoplastic hPSCs; experiment: p53 and p21 accumulation in neoplastic hPSCs; assay type: cell-based, human; settings: 24 h; 10 μM etoposide, 10 μM thioridazine, BMP4
Source text: Antibodies. Antibodies used for immunocytochemistry were the following: Oct3/4 (BD Trunsduction Laboratories, cat#611203), Sox2 (R&D, cat#AF2018). To detect human hematopoietic cells, Pacific Blue-, PE-, APC- or FITC labeled anti-human CD45 was used (BD Biosciences). FITC anti-CD33, PE anti-CD13, FITC anti-CD41a, FITC anti-HLA DR, and PE anti-CD19 antibodies were obtained from BD Pharmingen. PE anti-CD14, PE anti-CD15 and PE anti-GlyA were acquired from Immunotech Beckman Coulter. To determine pluripotency, PE anti-SSEA3 (BD Biosciences) and PE- or AlexaFluor488 anti-Oct4 (BD Biosciences). Rabbit anti-human dopamine receptor antibodies; DRD1 (Cat#324390), DRD2 (Cat#324393), DRD3 (Cat#324402), DRD4 (Cat#324405) and DRD5 (Cat#324408) were sourced from EMD Chemical. Anti-rabbit Alexa-Fluor-488 (Molecular Probes) was used as the secondary antibody. Primary anti-p53 (Cat#2527) and anti-p21 (Cat#2947) rabbit IgG sourced from Cell Signaling Technology were used to stain fixed and permeabilized cells. Anti-rabbit alexa-Fluor-546 (Molecular Probes) was used as the secondary antibody.

[6] = system: neoplastic hPSCs (v1H9-Oct4-GFP); experiment: Flow cytometry of Oct4 in neoplastic hPSCs; assay type: cell-based, human
[7] = system: AML LSCs (CD45+CD33+ blast engraftment); experiment: Xenotransplantation of compound-treated AML cells into NSG mice; assay type: in vivo; settings: 10 μM, 24 h ex vivo treatment
Procedure: Xenotransplantation Assays. NOD.Cg-Prkdc^scid II2rg^tm1Wjl/SzJ adult mice (NSG) were sub-lethally irradiated with 315 rads 24 hours prior transplantation. 0.8-1.0×10^7 AML MNCs or 1.5-1.8×10^5 CB lin-hematopoietic cells treated with compound or DMSO-vehicle for 24 h were injected via tail vein (IV). After 6-10 weeks, animals were culled, and the BM and spleen were analyzed for the presence of human cells by flow cytometry (LSRII, BD) and data was analyzed using FlowJo software (Tree Star Inc). For secondary HSPC transplants, equal number of engrafted human cells from CB lin− transplants were injected IV in adult irradiated NSG mice as described for primary transplants.
To delineate whether the inhibition of AML-blasts detected in vitro was due to the compounds affecting the neoplastic stem cell compartment, xenotransplantation studies (Dick, 2008) that functionally define LSCs and hematopoietic stem cells (HSCs) were conducted (FIG. 12).

[8] = system: hematopoietic stem and progenitor cells (HSPC, CB lin-); experiment: Methylcellulose colony-forming assay, HSPC (CB lin-)
Procedure: as §1, §2

[9] = Homo sapiens, 10 μM, 590 compound screen

Molecule: Br.CCCN(CCC)[C@@H]1CCc2ccc(O)cc2C1 [7OH-DPAT, R(+)-7-Hydroxy-DPAT hydrobromide]
- number of AML cells [1]: increased the number of AML cells

Molecule: Nc1ccn([C@@H]2O[C@H](CO)[C@@H](O)[C@@H]2O)c(=O)n1 [AraC, Arabinofuranosyl Cytidine]
- effective concentration (ECArac) (AML patient blast cells; concentration that reduced AML-blast-CFU while retaining HSPC function, single drug): 100 nM

Molecule: Oc1cc2c(cc1O)[C@@H](c1ccccc1)CNCC2 [SKF38393, (R)-(+)-SKF-38393 hydrochloride]
- number of AML cells [1]: significant reduction

Molecule: Cn1cnc([N+](=O)[O-])c1Sc1ncnc2nc[nH]c12 [azathioprine]
- activity at 10 µM [2, 9]: > 30%

Molecule: CN(C)CCCN1c2ccccc2Sc2ccc(Cl)cc21 [chlorpromazine, Chlorpromazine hydrochloride]
- normalized cell number / toxicity [3]: toxic
- cytotoxicity of AML cell lines [4]: significant effect
- cell count ([4]; 72 h, relative to control): eradicate the AML cell lines
- number of AML cells [1]: reduced the number of AML cells

Molecule: CN1CCN(C2=Nc3cc(Cl)ccc3Nc3ccccc32)CC1 [clozapine, Clozapine]
- cytotoxicity of AML cell lines [4]: significant effect

Molecule: COc1cc([C@@H]2c3cc4c(cc3[C@@H](O[C@@H]3O[C@@H]5CO[C@@H](C)O[C@H]5[C@H](O)[C@H]3O)[C@H]3COC(=O)[C@H]23)OCO4)cc(OC)c1O [etoposide]
- accumulation of cell stress marker p53 [5]: high levels
- accumulation of p21 [5]: high levels

Molecule: OCCN1CCN(CCCN2c3ccccc3Sc3ccc(C(F)(F)F)cc32)CC1 [fluphenazine]
- hit in extended screen (loss of pluripotency) [2]: hits

Molecule: CNC1CC(c2ccc(Cl)c(Cl)c2)c2ccccc21 (stereo not shown) [indatraline]
- activity at 10 µM ([2]; Homo sapiens): > 30%

Molecule: OC(c1cc(C(F)(F)F)nc2c(C(F)(F)F)cccc12)C1CCCCN1 (stereo not shown) [mefloquine]
- activity at 10 µM [2, 9]: > 30%
- EC50 ([2]; Homo sapiens, dose response, v1H9-Oct4-GFP, read-out: EC50 (reduction in GFP intensity)): < 10 µM
- cell number [6]: reductions
- levels of Oct4 [6]: reductions
- AML-blast CFU formation (AML patient blast cells; dose not stated in the sentence (0.1, 1, 10 μM tested)): reduced
- leukemic disease-initiating AML LSC capacity [7]: ineffective

Molecule: CN1CCN(CCCN2c3ccccc3Sc3ccc(Cl)cc32)CC1 [prochlorperazine]
- hit in extended screen (loss of pluripotency) [2]: hits

Molecule: CC[C@@H](C(=O)[C@@H](C)[C@@H](O)[C@H](C)[C@@H]1O[C@@H]([C@@H](CC)C(=O)O)CC[C@@H]1C)[C@H]1O[C@]2(C=C[C@@H](O)[C@]3(CC[C@@](C)([C@H]4CC[C@](O)(CC)[C@H](C)O4)O3)O2)[C@H](C)C[C@@H]1C [salinomycin]
- HSPC CFU potential [8]: reduced
- AML-blast CFU potential (AML patient blast cells; 1 μM): reduced
- AML-blast CFU potential (AML patient blast cells; 10 μM): reduced

B1: BMP4: differentiation control, 100 ng/ml of BMP4 (protein, UniProt P12644 293-408, looked up)
Bone morphogenetic protein 4: SPKHHSQRARKKNKNCRRHSLYVDFSDVGWNDWIVAPPGYQAFYCHGDCPFPLADHLNSTNHAIVQTLVNSVNSSIPKACCVPTELSAISMLYLDEYDKVVLKNYQEMVVEGCGCR
- accumulation of cell stress marker p53 [5]: no accumulation
- accumulation of p21 [5]: no accumulation
